The supplement of paper PMC10307832

Columns and labels:
Assay in all cases: relative viability (nuclei count vs DMSO), 5 days (fraction); higher = more cells survive
COR-L23 = test system: COR-L23
In short: (§1)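 Medians of duplicate plates are given as relative viability. That measure is the nuclei count in treated wells divided by the count in vehicle wells. Counts were taken on 4× images of lung cancer cell lines in 1536-well plates, 5 days after pin-tool dosing the day after seeding with one drug alone or a fixed anchor-drug dose plus five library-drug doses (not always all listed) in √10 steps.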

SK-MES-1 = test system: SK-MES-1
In short: as §1

NCI-H23 = test system: NCI-H23
In short: as §1

PC-14 = test system: PC-14
In short: as §1

NCI-H661 = test system: NCI-H661
In short: as §1

NCI-H1437 = test system: NCI-H1437
In short: as §1

UMC-11 = test system: UMC-11
In short: as §1

NCI-H2087 = test system: NCI-H2087
In short: as §1

HCC-827 = test system: HCC-827
In short: as §1

NCI-H2228 = test system: NCI-H2228
In short: as §1

NCI-H2085 = test system: NCI-H2085
In short: as §1

LCLC-103H = test system: LCLC-103H
In short: as §1

H3255 = test system: H3255
In short: as §1

NCI-H1666 = test system: NCI-H1666
In short: as §1

LXF-289 = test system: LXF-289
In short: as §1

HCC-366 = test system: HCC-366
In short: as §1

HCC-15 = test system: HCC-15
In short: as §1

NCI-H1975 = test system: NCI-H1975
In short: as §1

PC-3 [JPC-3] = test system: PC-3 [JPC-3]
In short: as §1

NCI-H2342 = test system: NCI-H2342
In short: as §1

NCI-H2009 = test system: NCI-H2009
In short: as §1

LC-2-ad = test system: LC-2-ad
In short: as §1

ABC-1 = test system: ABC-1
In short: as §1

Structure (SMILES): Cc1csc(=NC2CCCCC2)n1/N=C/c1ccc(O)c(O)c1O [MIM1] + N=C(N)NC(=N)NCCc1ccccc1 [Phenformin] (partner 250 µM)
- relative viability (COR-L23; first compound 0.2 µM): 0.434
- relative viability (COR-L23; first compound 0.6325 µM): 0.437
- relative viability (COR-L23; first compound 2 µM): 0.37
- relative viability (COR-L23; first compound 6.325 µM): 0.373
- relative viability (COR-L23; first compound 20 µM): 0.187
- relative viability (SK-MES-1; first compound 0.2 µM): 0.643
- relative viability (SK-MES-1; first compound 0.6325 µM): 0.665
- relative viability (SK-MES-1; first compound 2 µM): 0.617
- relative viability (SK-MES-1; first compound 6.325 µM): 0.484
- relative viability (SK-MES-1; first compound 20 µM): 0.41
- relative viability (NCI-H23; first compound 0.2 µM): 0.809
- relative viability (NCI-H23; first compound 2 µM): 0.711
- relative viability (NCI-H23; first compound 6.325 µM): 0.598
- relative viability (NCI-H23; first compound 20 µM): 0.2
- relative viability (PC-14; first compound 0.2 µM): 0.662
- relative viability (PC-14; first compound 0.6325 µM): 0.575
- relative viability (PC-14; first compound 2 µM): 0.558
- relative viability (PC-14; first compound 6.325 µM): 0.328
- relative viability (PC-14; first compound 20 µM): 0.237
- relative viability (NCI-H661; first compound 0.2 µM): 0.254
- relative viability (NCI-H661; first compound 0.6325 µM): 0.28
- relative viability (NCI-H661; first compound 2 µM): 0.274
- relative viability (NCI-H661; first compound 6.325 µM): 0.26
- relative viability (NCI-H661; first compound 20 µM): 0.24
- relative viability (NCI-H1437; first compound 0.2 µM): 0.256
- relative viability (NCI-H1437; first compound 0.6325 µM): 0.246
- relative viability (NCI-H1437; first compound 2 µM): 0.244
- relative viability (NCI-H1437; first compound 6.325 µM): 0.205
- relative viability (NCI-H1437; first compound 20 µM): 0.217
- relative viability (UMC-11; first compound 0.2 µM): 0.326
- relative viability (UMC-11; first compound 2 µM): 0.336
- relative viability (UMC-11; first compound 6.325 µM): 0.291
- relative viability (UMC-11; first compound 20 µM): 0.201
- relative viability (NCI-H2087; first compound 0.2 µM): 0.457
- relative viability (NCI-H2087; first compound 0.6325 µM): 0.443
- relative viability (NCI-H2087; first compound 2 µM): 0.478
- relative viability (NCI-H2087; first compound 6.325 µM): 0.289
- relative viability (NCI-H2087; first compound 20 µM): 0.225
- relative viability (HCC-827; first compound 0.2 µM): 0.412
- relative viability (HCC-827; first compound 0.6325 µM): 0.377
- relative viability (HCC-827; first compound 2 µM): 0.404
- relative viability (HCC-827; first compound 6.325 µM): 0.31
- relative viability (HCC-827; first compound 20 µM): 0.13
- relative viability (NCI-H2228; first compound 0.2 µM): 0.389
- relative viability (NCI-H2228; first compound 0.6325 µM): 0.272
- relative viability (NCI-H2228; first compound 2 µM): 0.332
- relative viability (NCI-H2228; first compound 6.325 µM): 0.145
- relative viability (NCI-H2228; first compound 20 µM): 0.0959
- relative viability (NCI-H2085; first compound 0.2 µM): 0.739
- relative viability (NCI-H2085; first compound 0.6325 µM): 0.713
- relative viability (NCI-H2085; first compound 2 µM): 0.788
- relative viability (NCI-H2085; first compound 6.325 µM): 0.589
- relative viability (NCI-H2085; first compound 20 µM): 0.468
- relative viability (LCLC-103H; first compound 0.2 µM): 0.334
- relative viability (LCLC-103H; first compound 0.6325 µM): 0.297
- relative viability (LCLC-103H; first compound 2 µM): 0.354
- relative viability (LCLC-103H; first compound 6.325 µM): 0.334
- relative viability (LCLC-103H; first compound 20 µM): 0.291
- relative viability (H3255; first compound 0.2 µM): 0.33
- relative viability (H3255; first compound 0.6325 µM): 0.386
- relative viability (H3255; first compound 2 µM): 0.379
- relative viability (H3255; first compound 6.325 µM): 0.402
- relative viability (H3255; first compound 20 µM): 0.302
- relative viability (NCI-H1666; first compound 0.2 µM): 0.578
- relative viability (NCI-H1666; first compound 0.6325 µM): 0.607
- relative viability (NCI-H1666; first compound 2 µM): 0.517
- relative viability (NCI-H1666; first compound 6.325 µM): 0.456
- relative viability (NCI-H1666; first compound 20 µM): 0.26
- relative viability (LXF-289; first compound 0.2 µM): 0.517
- relative viability (LXF-289; first compound 0.6325 µM): 0.476
- relative viability (LXF-289; first compound 2 µM): 0.532
- relative viability (LXF-289; first compound 6.325 µM): 0.452
- relative viability (LXF-289; first compound 20 µM): 0.264
- relative viability (HCC-366; first compound 0.2 µM): 0.598
- relative viability (HCC-366; first compound 2 µM): 0.574
- relative viability (HCC-366; first compound 6.325 µM): 0.357
- relative viability (HCC-366; first compound 20 µM): 0.0831
- relative viability (HCC-15; first compound 0.2 µM): 0.501
- relative viability (HCC-15; first compound 2 µM): 0.51
- relative viability (HCC-15; first compound 6.325 µM): 0.162
- relative viability (HCC-15; first compound 20 µM): 0.114
- relative viability (NCI-H1975; first compound 0.2 µM): 0.432
- relative viability (NCI-H1975; first compound 0.6325 µM): 0.403
- relative viability (NCI-H1975; first compound 2 µM): 0.39
- relative viability (NCI-H1975; first compound 6.325 µM): 0.296
- relative viability (NCI-H1975; first compound 20 µM): 0.179
- relative viability (PC-3 [JPC-3]; first compound 0.2 µM): 0.458
- relative viability (PC-3 [JPC-3]; first compound 0.6325 µM): 0.488
- relative viability (PC-3 [JPC-3]; first compound 2 µM): 0.517
- relative viability (PC-3 [JPC-3]; first compound 6.325 µM): 0.469
- relative viability (PC-3 [JPC-3]; first compound 20 µM): 0.361
- relative viability (NCI-H2342; first compound 0.2 µM): 0.656
- relative viability (NCI-H2342; first compound 0.6325 µM): 0.543
- relative viability (NCI-H2342; first compound 2 µM): 0.584
- relative viability (NCI-H2342; first compound 6.325 µM): 0.53
- relative viability (NCI-H2342; first compound 20 µM): 0.785
- relative viability (NCI-H2009; first compound 0.2 µM): 0.493
- relative viability (NCI-H2009; first compound 0.6325 µM): 0.479
- relative viability (NCI-H2009; first compound 2 µM): 0.45
- relative viability (NCI-H2009; first compound 6.325 µM): 0.309
- relative viability (NCI-H2009; first compound 20 µM): 0.169
- relative viability (LC-2-ad; first compound 0.2 µM): 0.679
- relative viability (LC-2-ad; first compound 0.6325 µM): 0.502
- relative viability (LC-2-ad; first compound 2 µM): 0.537
- relative viability (LC-2-ad; first compound 6.325 µM): 0.389
- relative viability (LC-2-ad; first compound 20 µM): 0.217
- relative viability (ABC-1; first compound 0.2 µM): 0.228
- relative viability (ABC-1; first compound 0.6325 µM): 0.261
- relative viability (ABC-1; first compound 2 µM): 0.231
- relative viability (ABC-1; first compound 6.325 µM): 0.201
- relative viability (ABC-1; first compound 20 µM): 0.189
